SMILES strings stand for the structures.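 How tested: cells in 96-well plates exposed to compound for 48 hours at five concentrations. At the TGI there is no net growth.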 A value given as a limit tells only on which side of the number the result lay.

Test systems include M19-MEL melanoma; SNB-78 CNS; HOP-18 NSCLC; KM20L2 colon; DMS 114 small cell lung; LXFL 529 NSCLC; DLD-1 colon; DMS 273 small cell lung; XF 498 CNS; RXF-631 renal.
Common to all, as to test: DTP human tumour cell line panel, 48 h

With `CC(=O)OCC1OC(OC2C(COC(C)=O)OC(Sc3ccccc3C)C(OC(C)=O)C2OC(C)=O)C(OC(C)=O)C(OC(C)=O)C1OC(C)=O` (stereo unspecified), the TGI in the assay with M19-MEL melanoma, in the assay with SNB-78 CNS, with HOP-18 NSCLC, in the assay with KM20L2 colon, in the assay with DMS 114 small cell lung and with LXFL 529 NSCLC was over 100 µM each time. Further, the TGI in the assay on DLD-1 colon and with DMS 273 small cell lung was over 100 µM in each case.

With `NS(=O)(=O)c1ccc(Nc2c3ccccc3nc3c(C(=O)N4CCN(CCO)CC4)cccc23)cc1`, the TGI in the assay on M19-MEL melanoma, in the assay with XF 498 CNS, in the assay with SNB-78 CNS, in the assay with HOP-18 NSCLC, in the assay on KM20L2 colon and in the assay with DMS 114 small cell lung was over 100 µM in each case. The total growth inhibition concentration (TGI) in the assay with LXFL 529 NSCLC and in the assay on DMS 273 small cell lung was over 100 µM throughout.

As to `O=c1[nH]c(=O)n(C2CC(O)C(CO)O2)cc1C(F)(C(F)(F)F)C(F)(F)F` (stereo unspecified), the TGI in the assay on M19-MEL melanoma, with XF 498 CNS, with SNB-78 CNS, with HOP-18 NSCLC, in the assay on KM20L2 colon and in the assay on DMS 114 small cell lung was over 100 µM throughout. In addition, the total growth inhibition concentration (TGI) in the assay with LXFL 529 NSCLC, in the assay with DLD-1 colon and in the assay on DMS 273 small cell lung was over 100 µM each time.

Regarding `CSc1ccc2c(cc1=O)[C@@H](NC(=O)c1ccc(Cl)cc1)CCc1cc(O)c(O)c(O)c1-2`, the TGI with M19-MEL melanoma, in the assay on SNB-78 CNS, in the assay with HOP-18 NSCLC, with KM20L2 colon, in the assay with DMS 114 small cell lung and in the assay on LXFL 529 NSCLC was over 100 µM each time. Further, the concentration for total growth inhibition (TGI) in the assay on DLD-1 colon is 72.7 µM; with DMS 273 small cell lung, over 100 µM.

As to `CC[C@]12C=CCN3CCC4(c5cc([C@@]6(C(=O)OC)CC7CN(CCc8c6[nH]c6ccccc86)C[C@@H]6CCCC[C@H]76)c(OC)cc5N(C)C4[C@](O)(C(=O)OC)C1OC(C)=O)[C@@H]32` (stereo partly specified), the TGI in the assay on M19-MEL melanoma is 16.3 µM; in the assay with XF 498 CNS, 3.79 µM; in the assay on SNB-78 CNS, 19.9 µM; in the assay on DMS 114 small cell lung it was under 0.01 µM; in the assay with LXFL 529 NSCLC, 1.71 µM; in the assay with DLD-1 colon, 13.8 µM.

`O=C1Cc2nc(CO)c(CO)c(CO)c2CO1`: the TGI in the assay with M19-MEL melanoma, in the assay on SNB-78 CNS, in the assay with HOP-18 NSCLC, with KM20L2 colon, with DMS 114 small cell lung and in the assay with LXFL 529 NSCLC was over 100 µM throughout. In addition, the TGI with DLD-1 colon and in the assay with DMS 273 small cell lung was over 100 µM throughout.

As to `CCOc1cn(C2OC(CO)C(O)C2O)c(=O)[nH]c1=O` (stereo unspecified), the TGI in the assay on M19-MEL melanoma, with SNB-78 CNS, in the assay on HOP-18 NSCLC, in the assay with KM20L2 colon, with DMS 114 small cell lung and in the assay on LXFL 529 NSCLC was over 100 µM each time. Further, the concentration for total growth inhibition (TGI) in the assay with DLD-1 colon and with DMS 273 small cell lung was over 100 µM in each case.

Regarding `COc1ccc(C2ON(c3ccccc3)CC=C2C)cc1` (stereo unspecified), the TGI in the assay with M19-MEL melanoma, in the assay on XF 498 CNS, in the assay with SNB-78 CNS, in the assay with RXF-631 renal, with KM20L2 colon and in the assay with LXFL 529 NSCLC was over 100 µM in each case. The TGI in the assay with DLD-1 colon and with DMS 273 small cell lung was over 100 µM in each case.

Consider `COc1cccc(/C=C/C(=O)c2sc(C(N)=S)nc2C)c1O`, for which the TGI with M19-MEL melanoma, in the assay on XF 498 CNS, in the assay with SNB-78 CNS, in the assay on RXF-631 renal, with HOP-18 NSCLC and in the assay on KM20L2 colon was over 100 µM throughout. Moreover, the TGI is over 100 µM in the assay on DMS 114 small cell lung, over 50.1 µM in the assay with LXFL 529 NSCLC, over 68.5 µM in the assay with DLD-1 colon and over 91.3 µM with DMS 273 small cell lung.

With `COc1ccc(C(=O)c2c3cc(OC)c(OC)c(OC)c3cc[n+]2C)cc1`, the TGI is over 100 µM in the assay with M19-MEL melanoma; 33.3 µM in the assay with XF 498 CNS; over 100 µM with SNB-78 CNS; over 100 µM in the assay with RXF-631 renal; 80.6 µM with HOP-18 NSCLC; over 100 µM in the assay on KM20L2 colon. Besides, the TGI in the assay with DMS 114 small cell lung was 75.7 µM; in the assay with LXFL 529 NSCLC, over 100 µM; in the assay on DLD-1 colon, over 100 µM.

Consider `CC(=O)Nc1ccc(-c2nnc(SCC(=O)Nc3cccc(Cl)c3)o2)cc1`, for which the TGI in the assay on M19-MEL melanoma is over 100 µM; with SNB-78 CNS, over 100 µM; with HOP-18 NSCLC, 25.5 µM; in the assay with KM20L2 colon, 31.4 µM; in the assay with DMS 114 small cell lung, 6.07 µM; with LXFL 529 NSCLC it was 24.8 µM. Further, the results for the TGI in the assay with DLD-1 colon and with DMS 273 small cell lung were 28.3 µM and 62.4 µM, respectively.

Turning to `COc1cc2oc(-c3ccccc3)cc(=O)c2c(O)c1C`, the TGI with M19-MEL melanoma, with SNB-78 CNS, in the assay on KM20L2 colon, in the assay with DMS 114 small cell lung, with LXFL 529 NSCLC and in the assay with DLD-1 colon was over 100 µM each time. In the assay on DMS 273 small cell lung, this compound displayed a total growth inhibition concentration (TGI) of over 100 µM.

On to `COC(=O)[C@@]1(C)C(=O)CC[C@@H]1C=O`, for which the total growth inhibition concentration (TGI) with M19-MEL melanoma, in the assay on XF 498 CNS, in the assay on SNB-78 CNS, in the assay on KM20L2 colon, in the assay with DMS 114 small cell lung and with LXFL 529 NSCLC was over 100 µM throughout. Also, the TGI in the assay on DLD-1 colon is over 100 µM.

In the case of `COc1ccc(N2C(=O)C3c4[nH]c5ccccc5c4C4CC(C)(C)CC(C)(C)C4C3C2=O)cc1` (stereo unspecified), the TGI in the assay on M19-MEL melanoma is 33.7 µM; in the assay with XF 498 CNS, 36.8 µM; in the assay with SNB-78 CNS it was 55.3 µM; in the assay with HOP-18 NSCLC, 36.5 µM; in the assay with KM20L2 colon it was over 100 µM; with DMS 114 small cell lung, 97.7 µM. Besides, the TGI is 27.7 µM with LXFL 529 NSCLC, over 100 µM in the assay with DLD-1 colon and 23.8 µM in the assay on DMS 273 small cell lung.

Turning to `CC(=O)OCCOCNC(=S)N/N=C/c1cc([N+](=O)[O-])ccc1O`, the TGI in the assay on M19-MEL melanoma, in the assay on XF 498 CNS, in the assay on SNB-78 CNS, with RXF-631 renal, with HOP-18 NSCLC and with KM20L2 colon was over 100 µM throughout. Further, the TGI in the assay with DMS 114 small cell lung, with LXFL 529 NSCLC, in the assay with DLD-1 colon and in the assay with DMS 273 small cell lung was over 100 µM each time.

Take `c1cc2nnsc2s1`: the TGI in the assay with M19-MEL melanoma, in the assay on XF 498 CNS, in the assay with SNB-78 CNS, in the assay with HOP-18 NSCLC, with KM20L2 colon and in the assay on LXFL 529 NSCLC was over 100 µM each time. Besides, the TGI with DLD-1 colon and with DMS 273 small cell lung was over 100 µM in each case.

On to `CN/C=C(\C(=O)c1ccc(OC)c(OC)c1)c1ccc(OC)cc1`, for which the TGI with M19-MEL melanoma worked out at 34.3 µM; with XF 498 CNS it was 33.2 µM; with RXF-631 renal, 32.5 µM; in the assay with HOP-18 NSCLC, 20.9 µM; with DMS 114 small cell lung, 46.8 µM; in the assay on LXFL 529 NSCLC it was 30.2 µM. Moreover, the results for the TGI with DLD-1 colon and in the assay on DMS 273 small cell lung were 31.7 µM and 21.7 µM, respectively.

Take `COc1cc(CC2c3cc(OC)c(OC)cc3CCN2C)ccc1O` (stereo unspecified): the TGI with XF 498 CNS, in the assay with SNB-78 CNS, in the assay on HOP-18 NSCLC, in the assay on KM20L2 colon, in the assay with LXFL 529 NSCLC and in the assay on DLD-1 colon was over 100 µM in each case.

Take `CC(c1ccc2c(c1)CCC1C2CC2OC23CC=CC(=O)[C@]13C)C1C[C@]2(C)O[C@]2(C)[C@H](O)O1` (stereo partly specified): the TGI is over 100 µM in the assay on M19-MEL melanoma; over 100 µM in the assay with XF 498 CNS; over 100 µM with KM20L2 colon; 4.97 µM in the assay with DMS 114 small cell lung; over 100 µM in the assay on LXFL 529 NSCLC; over 100 µM in the assay on DMS 273 small cell lung.

For `COc1ccc2c(=O)cc(-c3ccc(OC)c(OC)c3OC)oc2c1`, the TGI is over 100 µM in the assay on M19-MEL melanoma; over 100 µM with XF 498 CNS; over 100 µM in the assay with RXF-631 renal; 77.3 µM in the assay on KM20L2 colon; over 100 µM in the assay with DMS 114 small cell lung; over 100 µM in the assay on LXFL 529 NSCLC. The compound also displayed a TGI with DLD-1 colon of over 100 µM.

Take `COC1(C)C(=O)N2C1N(C(=O)OC(C)(C)C)CC2(C)C` (stereo unspecified): the TGI in the assay with M19-MEL melanoma, in the assay with SNB-78 CNS, in the assay with HOP-18 NSCLC, with KM20L2 colon, with DMS 114 small cell lung and in the assay on LXFL 529 NSCLC was over 100 µM throughout. The total growth inhibition concentration (TGI) in the assay on DLD-1 colon and in the assay with DMS 273 small cell lung was over 100 µM each time.

The values are drawn from PubChem BioAssay (NCI).
